Data reported in ChEMBL document CHEMBL4130345, “Discovery of a series of dihydroquinoxalin-2(1H)-ones as selective BET inhibitors from a dual PLK1-BRD4 inhibitor” (Eur J Med Chem, 2017).

Experiments:
[1] = target: Bromodomain adjacent to zinc finger domain protein 2B (Homo sapiens) (UniProt Q9UIF8); test: Inhibition of human partial length BAZ2B (S2054 to S2168 residues) expressed in Escherichia coli BL21 assessed as residual activity at 1 uM after 1 hr by qPCR method relative to control
[2] = target: Bromodomain-containing protein 3 (Homo sapiens) (UniProt Q15059); test: Inhibition of human partial length BRD3 bromodomain 2 (G306 to P416 residues) expressed in Escherichia coli BL21 assessed as residual activity at 1 uM after 1 hr by qPCR method relative to control
[3] = target: Bromodomain-containing protein 2 (Homo sapiens) (UniProt P25440); test: Inhibition of human partial length BRD2 bromodomain 1 long isoform (K71 to N194 residues) expressed in Escherichia coli BL21 assessed as residual activity at 1 uM after 1 hr by qPCR method relative to control
[4] = Plasma concentration in ICR (CD-1) mouse at 10 mg/kg, po after 24 hrs; format: ADME, organism-based
[5] = AUC (0 to t) in ICR (CD-1) mouse at 10 mg/kg, po; format: ADME, organism-based; conditions: in vivo
[6] = target: Transcription initiation factor TFIID subunit 1-like (Homo sapiens) (UniProt Q8IZX4); test: Inhibition of human partial length TAF1L bromodomain 2 (Q1523 to D1654 residues) expressed in Escherichia coli BL21 assessed as residual activity at 1 uM after 1 hr by qPCR method relative to control
[7] = AUC (0 to infinity) in ICR (CD-1) mouse at 10 mg/kg, po; format: ADME, organism-based; parameters: dose 10 mg/kg, time infinity, route oral; conditions: in vivo
[8] = target: Transcription initiation factor TFIID subunit 1 (Homo sapiens) (UniProt P21675); test: Inhibition of human partial length TAF1 bromodomain 2 (D1521 to D1656 residues) expressed in Escherichia coli BL21 assessed as residual activity at 1 uM after 1 hr by qPCR method relative to control
[9] = target: Bromodomain-containing protein 3 (Homo sapiens) (UniProt Q15059); test: Inhibition of human partial length BRD3 bromodomain 1 (P24 to E144 residues) expressed in Escherichia coli BL21 assessed as residual activity at 1 uM after 1 hr by qPCR method relative to control
[10] = target: Bromodomain testis-specific protein (Homo sapiens) (UniProt Q58F21); test: Inhibition of human partial length BRDT bromodomain 2 (K250 to E382 residues) expressed in Escherichia coli BL21 assessed as residual activity at 1 uM after 1 hr by qPCR method relative to control
[11] = target: Nucleosome-remodeling factor subunit BPTF (Homo sapiens) (UniProt Q12830); test: Inhibition of human partial length FALZ (S2791 to H2911 residues) expressed in Escherichia coli BL21 assessed as residual activity at 1 uM after 1 hr by qPCR method relative to control
[12] = target: E3 ubiquitin-protein ligase TRIM33 (Homo sapiens) (UniProt Q9UPN9); test: Inhibition of human partial length TRIM33 (D882 to A1087 residues) expressed in Escherichia coli BL21 assessed as residual activity at 1 uM after 1 hr by qPCR method relative to control
[13] = target: Bromodomain and WD repeat-containing protein 1 (Homo sapiens) (UniProt Q9NSI6); test: Inhibition of human partial length BRWD1 (A1310 to E1430 residues) expressed in Escherichia coli BL21 assessed as residual activity at 1 uM after 1 hr by qPCR method relative to control
[14] = target: Bromodomain-containing protein 2 (Homo sapiens) (UniProt P25440); test: Inhibition of human partial length BRD2 bromodomain 2 isoform 1 (E348 to D455 residues) expressed in Escherichia coli BL21 assessed as residual activity at 1 uM after 1 hr by qPCR method relative to control
[15] = target: ATPase family AAA domain-containing protein 2B (Homo sapiens) (UniProt Q9ULI0); test: Inhibition of human partial length ATAD2B (Q955 to R1082 residues) expressed in Escherichia coli BL21 assessed as residual activity at 1 uM after 1 hr by qPCR method relative to control
[16] = target: SWI/SNF-related matrix-associated actin-dependent regulator of chromatin subfamily A member 2 (Homo sapiens) (UniProt P51531); test: Inhibition of human partial length SMARCA2 (S1377 to Q1486 residues) expressed in Escherichia coli BL21 assessed as residual activity at 1 uM after 1 hr by qPCR method relative to control
[17] = target: Chromatin remodeling regulator CECR2 (Homo sapiens) (UniProt Q9BXF3); test: Inhibition of human partial length CECR2 (P423 to D543 residues) expressed in Escherichia coli BL21 assessed as residual activity at 1 uM after 1 hr by qPCR method relative to control
[18] = target: Bromodomain and PHD finger-containing protein 3 (Homo sapiens) (UniProt Q9ULD4); test: Inhibition of human partial length BRPF3 (E588 to G701 residues) expressed in Escherichia coli BL21 assessed as residual activity at 1 uM after 1 hr by qPCR method relative to control
[19] = target: Transcription intermediary factor 1-alpha (Homo sapiens) (UniProt O15164); test: Inhibition of human partial length TRIM24 (P790 to P977 residues) expressed in Escherichia coli BL21 assessed as residual activity at 1 uM after 1 hr by qPCR method relative to control
[20] = target: Bromodomain-containing protein 1 (Homo sapiens) (UniProt O95696); test: Inhibition of human partial length BRD1 (E556 to A688 residues) expressed in Escherichia coli BL21 assessed as residual activity at 1 uM after 1 hr by qPCR method relative to control
[21] = target: Bromodomain-containing protein 7 (Homo sapiens) (UniProt Q9NPI1); test: Inhibition of human partial length BRD7 (L125 to R254 residues) expressed in mammalian expression system assessed as residual activity at 1 uM after 1 hr by qPCR method relative to control
[22] = target: Protein polybromo-1 (Homo sapiens) (UniProt Q86U86); test: Inhibition of human partial length PBRM1 bromodomain 2 (S178 to E291 residues) expressed in Escherichia coli BL21 assessed as residual activity at 1 uM after 1 hr by qPCR method relative to control
[23] = target: Bromodomain-containing protein 4 (Homo sapiens, UniProt O60885); test: Inhibition of human partial length BRD4 bromodomain 1 long isoform (N44 to E168 residues) expressed in Escherichia coli BL21 assessed as residual activity at 1 uM after 1 hr by qPCR method relative to control
[24] = target: ATPase family AAA domain-containing protein 2 (Homo sapiens) (UniProt Q6PL18); test: Inhibition of human partial length ATAD2A (Q981 to R1108 residues) expressed in Escherichia coli BL21 assessed as residual activity at 1 uM after 1 hr by qPCR method relative to control
[25] = Tmax in ICR (CD-1) mouse at 10 mg/kg, po; format: ADME, organism-based; conditions: in vivo
Peregrin (Homo sapiens) = Peregrin (Homo sapiens) (UniProt P55201); test: Inhibition of human partial length BRPF1 (E627 to G740 residues) expressed in Escherichia coli BL21 assessed as residual activity at 1 uM after 1 hr by qPCR method relative to control
Peregrin (Homo sapiens), sequence (P55201 whole entry, the tested form may be a part): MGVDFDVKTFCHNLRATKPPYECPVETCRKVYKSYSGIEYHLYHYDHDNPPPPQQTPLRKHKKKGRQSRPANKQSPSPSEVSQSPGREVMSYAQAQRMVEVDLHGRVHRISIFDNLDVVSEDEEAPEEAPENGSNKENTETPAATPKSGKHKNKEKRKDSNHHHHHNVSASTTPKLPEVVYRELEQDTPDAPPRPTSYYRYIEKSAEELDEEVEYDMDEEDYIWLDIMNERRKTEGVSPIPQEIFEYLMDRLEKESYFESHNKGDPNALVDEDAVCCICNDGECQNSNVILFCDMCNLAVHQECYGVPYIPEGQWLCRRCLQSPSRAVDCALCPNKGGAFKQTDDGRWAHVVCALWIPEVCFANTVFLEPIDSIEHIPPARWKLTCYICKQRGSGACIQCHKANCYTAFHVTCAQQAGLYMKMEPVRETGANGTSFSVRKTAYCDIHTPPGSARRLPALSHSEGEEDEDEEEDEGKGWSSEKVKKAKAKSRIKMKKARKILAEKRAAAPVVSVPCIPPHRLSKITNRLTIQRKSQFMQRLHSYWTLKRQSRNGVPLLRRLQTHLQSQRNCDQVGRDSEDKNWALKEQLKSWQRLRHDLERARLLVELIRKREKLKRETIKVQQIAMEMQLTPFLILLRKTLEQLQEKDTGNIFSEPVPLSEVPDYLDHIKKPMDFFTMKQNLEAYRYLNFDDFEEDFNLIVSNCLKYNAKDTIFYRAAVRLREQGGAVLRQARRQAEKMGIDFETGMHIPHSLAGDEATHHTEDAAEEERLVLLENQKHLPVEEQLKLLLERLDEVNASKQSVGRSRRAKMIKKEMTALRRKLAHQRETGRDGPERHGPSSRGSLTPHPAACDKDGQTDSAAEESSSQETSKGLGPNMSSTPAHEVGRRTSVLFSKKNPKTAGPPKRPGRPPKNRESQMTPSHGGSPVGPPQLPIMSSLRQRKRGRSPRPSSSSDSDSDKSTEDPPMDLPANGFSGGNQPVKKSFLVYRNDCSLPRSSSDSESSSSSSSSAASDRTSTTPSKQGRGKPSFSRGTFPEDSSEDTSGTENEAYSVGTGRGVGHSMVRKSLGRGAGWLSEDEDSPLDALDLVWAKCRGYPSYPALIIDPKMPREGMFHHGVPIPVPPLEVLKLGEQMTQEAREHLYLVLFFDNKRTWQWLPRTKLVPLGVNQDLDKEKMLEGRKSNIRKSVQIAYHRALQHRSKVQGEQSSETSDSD

Bromodomain-containing protein 2 (Homo sapiens), sequence (P25440 whole entry, looked up, the tested form may be a part, canonical isoform): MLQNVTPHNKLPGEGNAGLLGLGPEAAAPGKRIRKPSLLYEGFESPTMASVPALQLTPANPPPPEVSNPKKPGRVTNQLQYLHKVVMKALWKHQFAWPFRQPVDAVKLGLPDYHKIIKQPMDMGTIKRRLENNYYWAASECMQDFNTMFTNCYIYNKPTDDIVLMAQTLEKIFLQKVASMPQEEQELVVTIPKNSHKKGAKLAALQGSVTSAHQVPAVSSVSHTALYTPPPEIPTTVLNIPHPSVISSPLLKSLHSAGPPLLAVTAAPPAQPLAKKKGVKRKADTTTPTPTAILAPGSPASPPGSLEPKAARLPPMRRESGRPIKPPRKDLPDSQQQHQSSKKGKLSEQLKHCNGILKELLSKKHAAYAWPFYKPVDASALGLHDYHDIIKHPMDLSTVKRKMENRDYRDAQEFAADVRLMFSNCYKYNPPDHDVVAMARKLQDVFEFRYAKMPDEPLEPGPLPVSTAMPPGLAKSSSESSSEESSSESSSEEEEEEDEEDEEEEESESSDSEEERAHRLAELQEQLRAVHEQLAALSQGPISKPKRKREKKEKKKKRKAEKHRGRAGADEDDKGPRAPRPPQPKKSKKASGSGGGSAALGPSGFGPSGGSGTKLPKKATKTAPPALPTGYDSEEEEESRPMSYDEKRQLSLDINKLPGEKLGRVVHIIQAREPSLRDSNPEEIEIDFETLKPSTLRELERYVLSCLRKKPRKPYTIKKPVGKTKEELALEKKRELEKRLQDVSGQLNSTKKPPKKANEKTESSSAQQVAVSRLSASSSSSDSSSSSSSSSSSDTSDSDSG
Bromodomain-containing protein 3 (Homo sapiens), sequence (Q15059 2-726 limits assumed): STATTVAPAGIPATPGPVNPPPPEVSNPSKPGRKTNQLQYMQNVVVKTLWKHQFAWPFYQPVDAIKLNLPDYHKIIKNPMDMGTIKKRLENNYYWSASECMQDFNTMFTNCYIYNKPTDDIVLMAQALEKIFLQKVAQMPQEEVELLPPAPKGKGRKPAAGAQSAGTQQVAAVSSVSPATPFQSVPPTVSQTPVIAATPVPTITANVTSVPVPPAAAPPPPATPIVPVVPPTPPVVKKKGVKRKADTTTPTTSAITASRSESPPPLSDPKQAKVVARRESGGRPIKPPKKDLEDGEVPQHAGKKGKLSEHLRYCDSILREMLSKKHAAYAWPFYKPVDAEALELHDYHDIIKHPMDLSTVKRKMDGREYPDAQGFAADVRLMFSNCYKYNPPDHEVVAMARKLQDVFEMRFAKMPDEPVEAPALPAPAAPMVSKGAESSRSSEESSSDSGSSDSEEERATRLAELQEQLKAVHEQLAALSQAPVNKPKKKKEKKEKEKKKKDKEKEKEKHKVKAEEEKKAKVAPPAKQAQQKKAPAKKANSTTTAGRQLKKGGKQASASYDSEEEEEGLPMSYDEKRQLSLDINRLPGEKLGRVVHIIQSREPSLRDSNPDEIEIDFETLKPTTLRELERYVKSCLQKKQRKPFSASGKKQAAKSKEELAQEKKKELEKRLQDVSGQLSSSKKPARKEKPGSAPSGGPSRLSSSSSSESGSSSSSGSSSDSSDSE
Transcription intermediary factor 1-alpha (Homo sapiens), sequence (O15164 whole entry, the tested form may be a part): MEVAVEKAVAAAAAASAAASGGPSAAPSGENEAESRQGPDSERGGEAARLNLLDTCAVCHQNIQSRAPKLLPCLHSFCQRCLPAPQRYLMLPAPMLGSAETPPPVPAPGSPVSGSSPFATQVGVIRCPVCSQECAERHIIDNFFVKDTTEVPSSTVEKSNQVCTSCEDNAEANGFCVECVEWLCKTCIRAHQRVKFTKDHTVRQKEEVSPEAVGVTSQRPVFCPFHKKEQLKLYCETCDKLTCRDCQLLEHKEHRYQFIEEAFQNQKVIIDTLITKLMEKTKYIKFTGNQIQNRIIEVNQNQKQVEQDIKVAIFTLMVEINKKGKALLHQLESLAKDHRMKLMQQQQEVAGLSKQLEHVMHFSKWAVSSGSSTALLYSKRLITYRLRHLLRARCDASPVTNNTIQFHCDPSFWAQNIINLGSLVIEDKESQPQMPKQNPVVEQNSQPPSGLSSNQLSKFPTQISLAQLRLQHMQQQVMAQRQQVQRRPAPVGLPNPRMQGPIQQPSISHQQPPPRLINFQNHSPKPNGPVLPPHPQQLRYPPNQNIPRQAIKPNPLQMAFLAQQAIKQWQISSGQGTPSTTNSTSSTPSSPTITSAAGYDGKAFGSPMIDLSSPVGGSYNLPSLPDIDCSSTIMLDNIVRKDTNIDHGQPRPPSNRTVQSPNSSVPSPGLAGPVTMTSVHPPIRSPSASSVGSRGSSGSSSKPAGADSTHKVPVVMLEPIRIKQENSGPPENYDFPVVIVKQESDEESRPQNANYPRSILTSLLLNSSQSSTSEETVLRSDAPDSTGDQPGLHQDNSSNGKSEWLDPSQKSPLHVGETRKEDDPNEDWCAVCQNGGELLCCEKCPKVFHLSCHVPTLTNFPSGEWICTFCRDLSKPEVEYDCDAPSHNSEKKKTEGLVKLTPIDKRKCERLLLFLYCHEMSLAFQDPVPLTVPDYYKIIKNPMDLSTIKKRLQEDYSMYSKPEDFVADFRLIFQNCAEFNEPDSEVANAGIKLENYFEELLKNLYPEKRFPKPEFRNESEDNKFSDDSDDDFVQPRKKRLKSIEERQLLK
Bromodomain-containing protein 1 (Homo sapiens), sequence (O95696 whole entry, the tested form may be a part): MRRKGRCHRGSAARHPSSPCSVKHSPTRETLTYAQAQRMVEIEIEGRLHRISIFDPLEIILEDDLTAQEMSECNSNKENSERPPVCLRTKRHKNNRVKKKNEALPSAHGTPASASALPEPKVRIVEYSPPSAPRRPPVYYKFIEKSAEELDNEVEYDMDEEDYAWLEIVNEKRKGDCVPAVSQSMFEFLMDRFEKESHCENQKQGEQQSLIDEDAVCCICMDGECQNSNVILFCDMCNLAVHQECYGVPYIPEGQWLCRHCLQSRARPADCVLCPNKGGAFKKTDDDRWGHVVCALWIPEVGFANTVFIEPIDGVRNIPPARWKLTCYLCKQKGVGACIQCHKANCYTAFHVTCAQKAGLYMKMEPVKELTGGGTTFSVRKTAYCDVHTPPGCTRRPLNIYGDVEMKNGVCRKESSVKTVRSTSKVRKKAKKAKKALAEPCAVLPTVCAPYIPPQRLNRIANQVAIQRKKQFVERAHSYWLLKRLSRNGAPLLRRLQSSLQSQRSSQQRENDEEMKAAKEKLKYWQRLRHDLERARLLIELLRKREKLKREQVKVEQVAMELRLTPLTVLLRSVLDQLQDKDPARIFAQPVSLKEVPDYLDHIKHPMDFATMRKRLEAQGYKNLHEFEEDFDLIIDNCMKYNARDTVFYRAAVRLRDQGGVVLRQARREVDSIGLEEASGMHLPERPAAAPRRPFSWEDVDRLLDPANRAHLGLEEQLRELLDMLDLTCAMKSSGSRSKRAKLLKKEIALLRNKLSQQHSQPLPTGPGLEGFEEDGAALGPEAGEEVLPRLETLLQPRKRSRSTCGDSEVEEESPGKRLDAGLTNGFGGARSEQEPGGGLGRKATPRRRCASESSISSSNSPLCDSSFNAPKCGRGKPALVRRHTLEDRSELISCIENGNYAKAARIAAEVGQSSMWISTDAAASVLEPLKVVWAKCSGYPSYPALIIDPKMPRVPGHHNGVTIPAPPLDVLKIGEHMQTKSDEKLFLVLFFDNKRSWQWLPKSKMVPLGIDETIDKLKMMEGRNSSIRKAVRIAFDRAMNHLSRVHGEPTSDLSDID

For `Cc1ccc([C@H](C)Nc2ccc3c(c2)N(C2CC2)[C@H](C)C(=O)N3C)c(C)c1`, which Activity [1] is on record?
The Activity was 82%.

And the Activity [2]?
Its Activity is 0.3%.

And the Activity [3]?
Its Activity is 0.9%.

And the concentration at 24 h [4]?
The concentration at 24 h was under 0.3 ng/mL.

What about the AUC(0-t) [5] of the same molecule?
The AUC(0-t) was 1680 ng·h/mL.

What about the Activity [6] of the same molecule?
The Activity was 88%.

What about the AUC(0-inf) [7] of the same molecule?
Its AUC(0-inf) is 1690 ng·h/mL.

And the Activity [8]?
Its Activity is 85%.

And the Activity [9]?
Its Activity is 0.1%.

And the Activity [10]?
The Activity was 0%.

And the Activity [11]?
Its Activity is 96%.

And the Activity [12]?
The Activity was 99%.

And the Activity [13]?
The Activity was 73%.

And the Activity [14]?
The Activity was 0%.

And the Activity [15]?
Its Activity is 100%.

And the Activity [16]?
Its Activity is 73%.

What about the Activity [17] of the same molecule?
The Activity was 83%.

And the Activity [18]?
The Activity was 100%.

What about the Activity [19] of the same molecule?
Its Activity is 80%.

What about the Activity [20] of the same molecule?
The Activity was 57%.

And the Activity [21]?
The Activity was 97%.

And the Activity [22]?
The Activity was 100%.

What about the Activity [23] of the same molecule?
The Activity was 1.7%.

And the Activity [24]?
The Activity was 100%.

What about the Tmax [25] of the same molecule?
The Tmax was 19.8 min.

And the Activity (Peregrin (Homo sapiens))?
Its Activity is 100%.
